# Experimental data taken from patent US20230346878A1, “Treatment of Abdominal Pain Associated with Diarrhea-Predominant Irritable Bowel Syndrome” (Ironwood Pharmaceuticals, Inc., priority 2019, published 2023).
# Where a SMILES comes first, the peptide text is derived from it. Bridges are numbered along the chain shown (N, C = ends).
# Test: Phase 1 study of linaclotide DR2: PK in plasma and inspection of stool for intact tablets
# Assay type: in vivo, human
# Protocol: Delayed release “DR2” linaclotide tablets were administered in a double-blind, placebo-controlled Phase 1 study randomized healthy adult volunteers at dosing levels of 300 μg, 1200 μg, and 3000 μg or placebo for 7 days. Safety and tolerability were assessed at each dose and prior to escalation to the highest dose. Gastrointestinal pharmacodynamics (“PD”) assessments included change from baseline (CFB) in bowel movement frequency (Spontaneous bowel movement [SBM]/week) and stool consistency (Bristol stool form scale [BSFS]). To confirm release of linaclotide, all of the subject's stools were inspected for intact DR2 tablets.
# PK assessments were conduct through blood determination of linaclotide and its metabolite in plasma, and feces for the determination of linaclotide and its metabolite in stool, were collected from all dosed subjects during the Clinic Period.
structure (smiles),measurement,setting,value
"C[C@@H]1NC(=O)[C@@H]2CCCN2C(=O)[C@H](CC(N)=O)NC(=O)[C@@H]2CSSC[C@H](N)C(=O)N[C@H]3CSSC[C@H](NC1=O)C(=O)N[C@@H]([C@@H](C)O)C(=O)NCC(=O)N[C@H](C(=O)N[C@@H](Cc1ccc(O)cc1)C(=O)O)CSSC[C@H](NC(=O)[C@H](Cc1ccc(O)cc1)NC(=O)[C@H](CCC(=O)O)NC3=O)C(=O)N2 [Linaclotide, linaclotide] (H-CCEYCCNPACTGCY-OH; disulfide 1-6, 2-10, 5-13 (inferred))",systemic absorption / exposure,DR2 tablets orally for 7 days,minimally absorbed with negligible systemic exposure
same,detection in plasma,following 7 days of oral administration of DR2,Neither linaclotide nor its active metabolite were detected
